Test [1] deals with E. coli BAS901 (permeabilized). The format is cell-based. Particulars: CLSI broth microdilution, Muller-Hinton broth, 5×10^5 CFU/mL, 24 hr at 37 C, OD600, performed in triplicate. The protocol:
(§1) Minimum Inhibitory Concentration Assay
(§2) MICs were performed in accordance with the broth microdilution protocol from the Clinical and Standards Laboratory Institute.3 Alkynomycins were dissolved at 10 mg/mL in DMSO and two-fold serial dilutions were made across a 96-well plate containing Muller-Hinton (MH) broth. One plate was used for each indicator organism, and each well reached a final inoculum of 5×10^5 colony forming units per mL. Using OD600 readings normalized to a negative control, MICs were recorded as the lowest concentration at which growth was inhibited after a 24 hr incubation at 37 C. Controls were included on each plate to ensure peptide and media sterility. MICs are reported in Table 2 and Tables S4, S5 as an average of at least three independent trials.
(§3) Indicator organisms were stored at -80 C as glycerol stocks. Each organism was streaked onto tryptic soy agar and grown for 24 hr at 37 C. Single colonies were picked and used to inoculate MH broth. Bacteria culture was diluted to reach an OD600 of 0.015 prior to being used for MIC assays. […]
(Broth dilution looks for growth in wells or tubes with falling amounts of substance.)

In test [2] the test system is S. epidermidis RP26a. Format: cell-based. Particulars: 24 h. How it is done:
as §1, §2, §3

Test [3] has as its system MRSA USA 300. The format is cell-based. The note with it: USA 300, 24 h. The protocol: as §1, §2, §3
The test system of test [4] is E. coli MG1655. Format: cell-based. Particulars: MG1655, 24 h. The protocol: as §1, §2, §3
For test [5], the system named is S. epidermidis RP26a. The arrangement: method as in 2 sources, ref 38 = [38]; PMID 21095572; doi:10.1016/j.chembiol.2010.09.009; Smith P. A.; Roberts T. C.; Romesberg F. E. Broad-spectrum antibiotic activity of the arylomycin natural products is masked by natural target mutations . Chem. Biol. 2010 , 17 ( 11 ), 1223 – 1231 . ||| ref 38 (a number printed in a supplementary file, which may have a reference list of its own: not looked up in the article's list). The note with it: previously reported value provided for reference; cited from earlier work.

Test [6] relates to E. coli BAS901 (permeabilized). Particulars: previously reported value provided for reference; cited from earlier work.
In test [7] the test system is E. coli MG1655. Set-up: method as in 2 sources, ref 38 = [38]; PMID 21095572; doi:10.1016/j.chembiol.2010.09.009; Smith P. A.; Roberts T. C.; Romesberg F. E. Broad-spectrum antibiotic activity of the arylomycin natural products is masked by natural target mutations . Chem. Biol. 2010 , 17 ( 11 ), 1223 – 1231 . ||| ref 38 (a number printed in a supplementary file, which may have a reference list of its own: not looked up in the article's list). The note with it: previously reported value provided for reference; cited from earlier work.

The subject of test [8] is MRSA USA 300. The note with it: previously reported value provided for reference; cited from earlier work. The text has this: Table 2 Minimum Inhibitory Concentration of Alkynomycins against Gram-Positive and Gram-Negative Bacteria ^a | column: MRSA

In brackets after ≈: the same amount, converted by molar mass. Like-named read-outs stand apart in the source and are kept apart here. *1 amine or outer side, *2 acyl side, *3 side chain or, on linkers, in order; H or OH if unused. Where a SMILES comes first, the peptide text is derived from it. Bridges are numbered along the chain shown (N, C = ends). [ ]: non-standard residue; d: D form. The star is where a group is joined. Dodecyloxycarbonyl = CCCCCCCCCCCCOC(=O)*; CH2C≡CC≡CCH2 = C(C#CC[*:2])#CC[*:1]; NMePra = C#CC[C@H](NC)C(=O)O; X1 = CCCCCCCCCCCCCCCCOC(=O)*; NMeS = CN[C@@H](CO)C(=O)O; Dab = NCC[C@H](N)C(=O)O; Propargyl = C#CC*

As for `CCCCCCCCCCCCOC(=O)N[C@@H](CCN)C(=O)N(C)[C@H]1CC#CC#CC[C@@H](C(N)=O)NC(=O)[C@H](C)NC1=O` [Compound 10], the “MIC E. coli Δ” value in test [1] amounted to 4 µg/mL (≈ 6.64 µM). The “MIC S. epidermidis” value in the test with S. epidermidis RP26a [2] stood at 4 µg/mL (≈ 6.64 µM). Besides, the “MIC MRSA” value in the test with MRSA USA 300 [3] stood at 16 µg/mL (≈ 26.5 µM).
For the compound `CCCCCCCCCCCCCCCCOC(=O)N[C@@H](CCN)C(=O)N(C)[C@H]1CC#CC#CC[C@@H](C(N)=O)NC(=O)[C@H](C)NC1=O` [Compound 11], in test [1], the “MIC E. coli Δ” value worked out at 4 µg/mL (≈ 6.07 µM). The “MIC E. coli” value in the test with E. coli MG1655 [4] was more than 64 µg/mL. In addition, the “MIC S. epidermidis” value with S. epidermidis RP26a [2] is 4 µg/mL (≈ 6.07 µM). Also, the “MIC MRSA” value in the test with MRSA USA 300 [3] is 8 µg/mL (≈ 12.1 µM).
As to `CCCCCCCCCCCCOC(=O)N[C@@H](CCN)C(=O)N(C)[C@@H]1CC#CC#CC[C@H](C(N)=O)NC(=O)[C@H](C)NC1=O` [Compound 12], in test [1], the “MIC E. coli Δ” value turned out to be 16 µg/mL (≈ 26.5 µM). Moreover, the “MIC E. coli” value with E. coli MG1655 [4] was more than 64 µg/mL. In the test on S. epidermidis RP26a [2], the “MIC S. epidermidis” value was determined as 16 µg/mL (≈ 26.5 µM).
As to `CCCCCCCCCCCCCCCCOC(=O)N[C@@H](CCN)C(=O)N(C)[C@@H]1CC#CC#CC[C@H](C(N)=O)NC(=O)[C@H](C)NC1=O` [Compound 13], the “MIC E. coli Δ” value in test [1] was determined as 32 µg/mL (≈ 48.6 µM). Moreover, the “MIC E. coli” value against E. coli MG1655 [4] was more than 64 µg/mL. In the test with S. epidermidis RP26a [2], the “MIC S. epidermidis” value worked out at 16 µg/mL (≈ 24.3 µM).
Take `CCCCCCCCCCCCOC(=O)N[C@@H](CCN)C(=O)N(C)[C@H]1CC#CC#CCOC[C@@H](C(N)=O)NC(=O)[C@H](C)NC1=O` [Compound 14]: in test [1], the “MIC E. coli Δ” value was 16 µg/mL (≈ 25.3 µM). The “MIC E. coli” value against E. coli MG1655 [4] was more than 64 µg/mL. In addition, in the test with S. epidermidis RP26a [2], the “MIC S. epidermidis” value amounted to 16 µg/mL (≈ 25.3 µM). Further, in the test with MRSA USA 300 [3], the “MIC MRSA” value stood at 16 µg/mL (≈ 25.3 µM).
Consider `CCCCCCCCCCCCCCCCOC(=O)N[C@@H](CCN)C(=O)N(C)[C@H]1CC#CC#CCOC[C@@H](C(N)=O)NC(=O)[C@H](C)NC1=O` [Compound 15], for which, in test [1], the “MIC E. coli Δ” value amounted to 16 µg/mL (≈ 23.2 µM). The “MIC E. coli” value in the test with E. coli MG1655 [4] is more than 64 µg/mL. The “MIC S. epidermidis” value against S. epidermidis RP26a [2] is 32 µg/mL (≈ 46.5 µM). For the same compound, in the test with MRSA USA 300 [3], the “MIC MRSA” value is 16 µg/mL (≈ 23.2 µM).
For `CCCCCCCCCCCCOC(=O)N[C@@H](CCN)C(=O)N(C)[C@H]1CC#CC#CC[C@H](C(N)=O)NC(=O)[C@H](C)NC1=O` [Compound S1], in test [1], the “MIC E. coli Δ” value was more than 64 µg/mL. For the same compound, in the test with E. coli MG1655 [4], the “MIC E. coli” value was more than 64 µg/mL. The “MIC S. epidermidis” value with S. epidermidis RP26a [2] is more than 64 µg/mL.
In the case of `CCCCCCCCCCCCCCCCOC(=O)N[C@@H](CCN)C(=O)N(C)[C@H]1CC#CC#CC[C@H](C(N)=O)NC(=O)[C@H](C)NC1=O` [Compound S2], the “MIC E. coli Δ” value in test [1] was more than 64 µg/mL. For the same compound, the “MIC E. coli” value against E. coli MG1655 [4] is more than 64 µg/mL. Further, the “MIC S. epidermidis” value with S. epidermidis RP26a [2] is more than 64 µg/mL.
As to `CCCCCCCCCCCCOC(=O)N[C@@H](CCN)C(=O)N(C)[C@H]1COCC#CC#CC[C@@H](C(N)=O)NC(=O)[C@H](C)NC1=O` [Compound S3], the “MIC E. coli Δ” value in test [1] is more than 64 µg/mL. In addition, the “MIC E. coli” value against E. coli MG1655 [4] was more than 64 µg/mL. For the same compound, in the test with S. epidermidis RP26a [2], the “MIC S. epidermidis” value was more than 64 µg/mL.
Turning to `CCCCCCCCCCCCCCCCOC(=O)N[C@@H](CCN)C(=O)N(C)[C@H]1COCC#CC#CC[C@@H](C(N)=O)NC(=O)[C@H](C)NC1=O` [Compound S4], the “MIC E. coli Δ” value in test [1] is 64 µg/mL (≈ 92.9 µM). For the same compound, the “MIC E. coli” value with E. coli MG1655 [4] is more than 64 µg/mL. Further, in the test on S. epidermidis RP26a [2], the “MIC S. epidermidis” value is 64 µg/mL (≈ 92.9 µM).
Consider `CCCCCCCCCCCCOC(=O)N[C@@H](CCN)C(=O)N(C)[C@H]1COCC#CC#CC[C@H](C(N)=O)NC(=O)[C@H](C)NC1=O` [Compound S5], for which, in test [1], the “MIC E. coli Δ” value was more than 64 µg/mL. Besides, the “MIC E. coli” value in the test with E. coli MG1655 [4] is more than 64 µg/mL. Besides, the “MIC S. epidermidis” value in the test on S. epidermidis RP26a [2] was more than 64 µg/mL.
`CCCCCCCCCCCCCCCCOC(=O)N[C@@H](CCN)C(=O)N(C)[C@H]1COCC#CC#CC[C@H](C(N)=O)NC(=O)[C@H](C)NC1=O` [Compound S6]: in test [1], the “MIC E. coli Δ” value was determined as 64 µg/mL (≈ 92.9 µM). Also, the “MIC E. coli” value against E. coli MG1655 [4] was more than 64 µg/mL. Also, the “MIC S. epidermidis” value against S. epidermidis RP26a [2] stood at 64 µg/mL (≈ 92.9 µM).
As to `CCCCCCCCCCCCOC(=O)N[C@@H](CCN)C(=O)N(C)[C@H]1COCC#CC#CCOC[C@@H](C(N)=O)NC(=O)[C@H](C)NC1=O` [Compound S7] (Dodecyloxycarbonyl-[Dab][NMeS]AS-NH2; linker 2-4 via CH2C≡CC≡CCH2), in test [1], the “MIC E. coli Δ” value was more than 64 µg/mL. Further, in the test on E. coli MG1655 [4], the “MIC E. coli” value was more than 64 µg/mL. Further, in the test on S. epidermidis RP26a [2], the “MIC S. epidermidis” value was more than 64 µg/mL.
As to `CCCCCCCCCCCCCCCCOC(=O)N[C@@H](CCN)C(=O)N(C)[C@H]1COCC#CC#CCOC[C@@H](C(N)=O)NC(=O)[C@H](C)NC1=O` [Compound S8] (X1-[Dab][NMeS]AS-NH2; linker 2-4 via CH2C≡CC≡CCH2), in test [1], the “MIC E. coli Δ” value was determined as 64 µg/mL (≈ 89 µM). Besides, in the test with E. coli MG1655 [4], the “MIC E. coli” value was more than 64 µg/mL. Besides, the “MIC S. epidermidis” value in the test with S. epidermidis RP26a [2] was 64 µg/mL (≈ 89 µM).
Regarding `CCCCCCCCCCCCOC(=O)N[C@@H](CCN)C(=O)N[C@H]1CC#CC#CC[C@@H](C(N)=O)NC(=O)[C@H](C)NC1=O` [Compound S9], the “MIC E. coli Δ” value in test [1] is more than 64 µg/mL. Besides, in the test on E. coli MG1655 [4], the “MIC E. coli” value was more than 64 µg/mL. In addition, the “MIC S. epidermidis” value with S. epidermidis RP26a [2] was more than 64 µg/mL.
Consider `C#CCOC[C@H](NC(=O)[C@H](C)NC(=O)[C@H](CC#C)N(C)C(=O)[C@H](CCN)NC(=O)OCCCCCCCCCCCC)C(N)=O` [Compound S10] (Dodecyloxycarbonyl-[Dab][NMePra]AS(Propargyl)-NH2), for which the “MIC E. coli” value against E. coli MG1655 [4] is more than 64 µg/mL. Further, the “MIC S. epidermidis” value in the test on S. epidermidis RP26a [2] was more than 64 µg/mL.
Turning to Arylomycin A-C16, the “MIC S. epidermidis” value in the test with S. epidermidis RP26a [5] is 0.5 µg/mL. Besides, the “MIC E. coli Δ” value in test [6] is 8 µg/mL. The “MIC E. coli” value in the test on E. coli MG1655 [7] was more than 64 µg/mL. Also, the “MIC MRSA” value in the test on MRSA USA 300 [8] was 32 µg/mL.
